For one assay, the system named is K562. In words: Antiproliferative activity against human K562 cells after 72 hrs by MTT assay. The assay is classed as functional, cell-based. Particulars: K562, 72 h. A general note: Tetrazolium assays rely on reduction of a dye to a coloured formazan, in cell work by metabolically active cells.
The next assay relates to HeLa. Nature of the assay: Antiproliferative activity against human HeLa cells after 72 hrs by MTT assay. The assay is classed as functional, cell-based.
The test system of a further assay is HL-60. Nature of the assay: Antiproliferative activity against human HL60 cells after 72 hrs by MTT assay. Format: functional, cell-based. Particulars: HL-60, 72 h.
A further assay concerns Jurkat. In words: Antiproliferative activity against human Jurkat cells after 72 hrs by MTT assay. The assay is classed as functional, cell-based.
The next assay has as its system MRC5. Nature of the assay: Antiproliferative activity against human MRC5 cells after 72 hrs by MTT assay. The assay is classed as cell-based. To be noted: MRC5, 72 h.

The results in this text go back to ChEMBL document CHEMBL1141718, “Design, synthesis and antiproliferative activity of two new heteroannelated (-)-muricatacin mimics” (Bioorg Med Chem Lett, 2008).

The structures appear in SMILES notation.

With `CCCCCCCCCCOC[C@@H]1O[C@H]2CC(=O)O[C@H]2[C@@H]1O`, the half-inhibitory concentration (IC50) (in general, the concentration at which inhibition is half-maximal) in the assay on K562 was 1.25 µM; with HeLa it was 0.3 µM; with HL-60, 0.14 µM; in the assay on Jurkat, above 100 µM; in the assay with MRC5, above 100 µM.
Consider `CCCCCCCCCCOC[C@@H](O)[C@H]1CCC(=O)O1`, for which the concentration for half-maximal inhibition (IC50) in the assay on K562 is 0.13 µM; in the assay with HeLa it was 21.4 µM; in the assay on HL-60, 0.15 µM; in the assay on Jurkat, 3.01 µM; in the assay on MRC5, above 100 µM.
For `CCCCCCCCCOC[C@@H]1O[C@H]2CC(=O)O[C@H]2[C@@H]1O`, the 50% inhibitory concentration (IC50) in the assay on K562 was 8.61 µM; in the assay with HeLa, 9.59 µM; with HL-60, 1.53 µM; in the assay on Jurkat, 6.64 µM; in the assay on MRC5, above 100 µM.
With `CCCCCCCCCCCC[C@@H](O)[C@H]1CCC(=O)O1`, the half-maximal inhibitory concentration (IC50) in the assay with K562 is 0.04 µM; with HeLa, 0.17 µM; in the assay with HL-60, 25.9 µM; with Jurkat, above 100 µM; in the assay with MRC5, above 100 µM.
